Data: patent US5962291A, “Metal dependent catalytic antibodies and method for producing the same” (The Regents of the University of Colorado, priority 1997, dated 1999)

Key:
Assay type in all cases: biochemical, mice
[1] = tested on: monoclonal antibody 6A1A6 (metal dependent catalytic antibody, IgG); assay: Hydrolysis of 14C-labeled ATP, ADP and AMP by antibody 6A1A6, silica TLC analysis; settings: for Km / Vmax: 37° C., 0.5 mM EDTA, 1 mM MgCl2, 40 mM CHES, pH 9.0, 1.9 μM antibody
Description: (§1) General. […] EDTA was added to reactions to a concentration that removed the catalytic activity. MgCl2 or other metal salts were then added back to the reactions at the optimum level. Antibody concentration was adjusted for each system to obtain useable data in a reasonable reaction time and varied from 0.5-4 μM.
(§2) Kinetic analyses were done by standard methods as described. Rates were defined as initial velocities and reported in min^-1 or sec^-1. Each assay was done in duplicate or triplicate to allow for error analysis. Background rates were measured using an identical reaction mixture without antibody present. Michales-Menten parameters kcat and Km were derived from Eadie-Hofstee or weighted Lineweaver-Burk plots (using the computer program Enzyme Kinetics 1.0, Macintosh, Trinity Software). Inhibitory constants, Ki, were derived from Dixon or Lineweaver-Burk plots.
Thin Layer Chromatography. Reactions were quenched and analyzed by spotting on a TLC plate. Two systems were used. PEI-cellulose coated plates were run in 1.5 M formic acid/0.5 M LiCl (Rf values: […], 0.3; Pi, 0.8). (In some cases it was useful to pre-run the TLC plate in H2 O to reduce smearing). Silica coated plates were run in isopropanol:NH4OH:H2 O, (50:25:25) (Rf values: ATP, 0.36; ADP, 0.55; AMP, 0.7; and Adenosine, 0.95). Assays involving the visualization of pyrophosphate used two TLC systems simultaneously: the silica system described (Rf values: PPi,O; Pi, 0.3), and a PEI-cellulose system run in 0.3 M sodium phosphate, pH=7.0 (Rf values: ATP, 0.2; ADP, 0.4; AMP, 0.6; PPi, 0.15; and Pi, 0.65). Radioactivity was quantitated using a Molecular Dynamics Phosphorlmager.
Kinetic Assays Using ^14 C-Labeled Compounds. Assays were performed with [8-^14 C]ATP, [8-^14 C]ADP, and [^14 C(U)]AMP. […] Immediately before each reaction, the solution was evaporated to dryness in vacuo and the compound resuspended in an equal volume of water. […] Reactions were quenched and analyzed by the silica TLC system.

[2] = target: monoclonal antibody 6A1A6 (metal dependent catalytic antibody, IgG); assay: Spectrophotometric (405 nm) hydrolysis of p-nitrophenyl ester substrates by antibody 6A1A6; settings: for Ki: pH 9.0, 10 mM MgCl2
Description: as §1, with “General. Because antibody 6A1A6, see Table 2, was metal dependent, a few precautions were taken to insure consistent results for all assays.” for “General.”
as §2
p-Nitrophenyl Esters as Substrates. A useful system to assess cleavage utilized substrates containing esters with p-nitrophenol leaving groups. This assay was fast, reproducible and much more trouble free than the fluorescence assays. It relied on the fact that the anion cleavage product, p-nitrophenolate, is yellow at basic pH and its appearance can be followed spectrophotometrically at 405 nm.
Antibody 6A1A6 was assayed spectrophotometrically for its ability to cleave the above mentioned substrates containing the p-nitrophenyl leaving group at 405 nm using a Molecular Devices Vmax® kinetic microplate reader. Kinetic assays were performed in triplicate at 25° C. in 40 mM TAPS, 150 mM NaCl, 10 mM MgCl2, 0.5-0.6 μM antibody, pH=9.0.
Phosphodiester Substrate. […] This represents the first report of a catalytic antibody capable of hydrolyzing a phosphodiester bond. pNPPT is normally used as a substrate for snake venom phosphodiesterase. […] The uncatalyzed rate under these conditions was 1.35×10^-6 min^-1. […] The Ki is defined as the negative x-coordinate of the intersection point of the lines in a Dixon plot.
Phosphomonoester Substrate. Under reaction condition identical to those used for pNPPT, the antibody also catalyzes the hydrolysis of p-nitrophenyl phosphate (pNPP). […] The uncatalyzed rate was 3.4×10^-6 min^-1.

[3] = target: monoclonal antibody 6A1A6 (metal dependent catalytic antibody, IgG); assay: Hydrolysis of oligomer T15 (DNase activity) by antibody 6A1A6, inhibition by hapten; settings: substrate oligomer T15; pH 9, 1 mM Mg2+; read-out: Ki (competitive inhibition of DNase activity)
Description: as §2
It was unknown what type of specificity antibody 6A1A6 would have for a DNA polymer. Several possible activities were monitored under conditions of pH 9 and 1 mM Mg^2+ that were optimal for ATP hydrolysis.
Kinetic Parameters. Kinetic experiments were performed with T15 as a substrate. Due to the very slow rate of hydrolysis, experiments were done under single turnover conditions with enzyme excess.
Control Experiments. Standard controls were performed using oligomer T15 as a substrate. Immunoprecipitation reduced activity by 93%. The remaining activity could be due to incomplete immunoprecipitation, but could also be due to a contaminating nuclease. […] Fab fragments retained 46±17% of the original activity.

[4] = substrate pNPP, read-out: Ki (competitive inhibition of pNPP hydrolysis)

`Nc1ncnc2c1ncn2[C@@H]1O[C@H](COP(=O)(O)OP(=O)(O)OP(=O)(O)O)[C@@H](O)[C@H]1O` [ATP, Adenosine triphosphate] gave a Km [1] of 1400 ± 123 µM.
For `Nc1ncnc2c1ncn2[C@@H]1O[C@H](COP(=O)(O)O)[C@@H](O)[C@H]1O` [AMP], the Km [1] was 161 ± 21 µM and the Vmax [1] was 102 ± 3 s⁻¹.
`O=[N+]([O-])c1ccc(O)cc1` [p-nitrophenol] was tested, and the Ki [2, 4] was 9.31 ± 1.94 µM and the Ki ([2]; substrate pNPPT, product inhibition, read-out: Ki for p-nitrophenol (Dixon plot)) was 10.1 ± 2.1 µM.
`Cc1cn([C@H]2C[C@H](O)[C@@H](COP(=O)(O)Oc3ccc([N+](=O)[O-])cc3)O2)c(=O)[nH]c1=O` [pNPPT, thymidine-5'-monophosphate-p-nitrophenyl ester] was tested, and the “kcat (apparent), pNPPT as substrate” value ([2]; 10 mM MgCl2, 40 mM TAPS, 150 mM NaCl, pH 9.0, 25° C.) was 0.031±0.05 min^-1 and the Km ([2]; 10 mM MgCl2, 40 mM TAPS, 150 mM NaCl, pH 9.0, 25° C., read-out: Km (apparent), pNPPT as substrate) was 290 ± 80 µM.
Compound `Nc1ncnc2c1ncn2[C@@H]1O[C@H](COP(=O)(O)OP(=O)(O)O)[C@@H](O)[C@H]1O` [ADP, adenosine diphosphate] has a Km [1] of 70 ± 8 µM and a Vmax [1] of 120 ± 20 s⁻¹.
“thymidine 3'-O-(7-hydroxy-4-methyl coumarin) phosphorodithioate [hapten]” gave a Ki ([1]; substrate ATP, read-out: Ki (competitive inhibitor of ATP hydrolysis)) of 559 µM, a Ki [3] of 758 ± 57 µM and a Ki [2, 4] of 199 ± 54 µM.
